Residues, ends and D or L forms follow the SMILES beside them.
Biological target: Plasminogen (Homo sapiens, UniProt P00747)
Assay: Inhibition of human plasmin using Ac-RM(O2)YR-pNA as substrate after 30 mins

Sequence of Plasminogen (P00747 97-580 limits assumed): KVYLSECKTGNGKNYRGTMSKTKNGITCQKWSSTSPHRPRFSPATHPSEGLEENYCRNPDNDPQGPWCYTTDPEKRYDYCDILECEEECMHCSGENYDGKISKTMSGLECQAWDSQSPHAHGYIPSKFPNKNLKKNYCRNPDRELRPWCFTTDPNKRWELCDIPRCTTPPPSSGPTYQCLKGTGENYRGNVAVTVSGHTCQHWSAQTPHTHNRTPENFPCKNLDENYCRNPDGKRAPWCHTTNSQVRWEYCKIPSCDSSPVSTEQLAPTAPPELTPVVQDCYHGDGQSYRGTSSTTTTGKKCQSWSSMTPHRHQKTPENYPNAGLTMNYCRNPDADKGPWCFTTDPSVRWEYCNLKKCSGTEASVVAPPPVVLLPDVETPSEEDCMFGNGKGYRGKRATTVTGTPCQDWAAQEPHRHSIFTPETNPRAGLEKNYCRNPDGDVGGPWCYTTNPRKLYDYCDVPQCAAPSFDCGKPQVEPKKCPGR
Sequence of Plasminogen (P00747 581-810 limits assumed): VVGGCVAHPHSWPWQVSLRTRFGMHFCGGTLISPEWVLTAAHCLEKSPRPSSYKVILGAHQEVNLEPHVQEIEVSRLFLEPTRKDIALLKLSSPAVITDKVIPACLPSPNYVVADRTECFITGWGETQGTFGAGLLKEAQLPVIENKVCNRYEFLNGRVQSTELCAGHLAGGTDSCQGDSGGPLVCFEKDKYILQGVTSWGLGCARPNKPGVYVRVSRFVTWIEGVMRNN

Ki [nM]	Compound
120	CC[C@H](C)[C@@H]1NC(=O)[C@@H]2CCCN2C(=O)[C@@H]2CCCN2C(=O)[C@H]([C@@H](C)CC)NC(=O)[C@H](CO)NC(=O)[C@H](CCCNC(=N)N)NC(=O)[C@H]([C@@H](C)O)NC(=O)[C@@H]2CSSC[C@H](NC1=O)C(=O)N[C@@H](Cc1ccccc1)C(=O)N1CCC[C@H]1C(=O)N[C@@H](CC(=O)O)C(=O)NCC(=O)N[C@@H](CCCNC(=N)N)C(=O)N2 (HELM PEPTIDE1{C.F.P.D.G.R.C.T.R.S.I.P.P.I}$PEPTIDE1,PEPTIDE1,1:R3-7:R3|PEPTIDE1,PEPTIDE1,1:R1-14:R2$$$V2.0)
1.2	CC[C@H](C)[C@@H]1NC(=O)[C@@H]2CCCN2C(=O)[C@@H]2CCCN2C(=O)[C@H](CCCNC(=N)N)NC(=O)[C@H](CO)NC(=O)[C@H](CCCCN)NC(=O)[C@H](Cc2ccc(O)cc2)NC(=O)[C@@H]2CSSC[C@H](NC1=O)C(=O)N[C@@H](Cc1ccccc1)C(=O)N1CCC[C@H]1C(=O)N[C@@H](CC(N)=O)C(=O)NCC(=O)N[C@@H](CCCNC(=N)N)C(=O)N2 (HELM PEPTIDE1{C.F.P.N.G.R.C.Y.K.S.R.P.P.I}$PEPTIDE1,PEPTIDE1,1:R3-7:R3|PEPTIDE1,PEPTIDE1,1:R1-14:R2$$$V2.0)
8.3	CC[C@H](C)[C@@H]1NC(=O)[C@@H]2CCCN2C(=O)[C@@H]2CCCN2C(=O)[C@H](CCCCN)NC(=O)[C@H](CO)NC(=O)[C@H](CCCNC(=N)N)NC(=O)[C@H](Cc2ccc(O)cc2)NC(=O)[C@@H]2CSSC[C@H](NC1=O)C(=O)N[C@@H](Cc1ccccc1)C(=O)N1CCC[C@H]1C(=O)N[C@@H](CC(=O)O)C(=O)NCC(=O)N[C@@H](CCCNC(=N)N)C(=O)N2 (HELM PEPTIDE1{C.F.P.D.G.R.C.Y.R.S.K.P.P.I}$PEPTIDE1,PEPTIDE1,1:R3-7:R3|PEPTIDE1,PEPTIDE1,1:R1-14:R2$$$V2.0)
16	CC[C@H](C)[C@@H]1NC(=O)[C@@H]2CCCN2C(=O)[C@@H]2CCCN2C(=O)[C@H](CCCNC(=N)N)NC(=O)[C@H](CO)NC(=O)[C@H](CCCNC(=N)N)NC(=O)[C@H](Cc2ccc(O)cc2)NC(=O)[C@@H]2CSSC[C@H](NC1=O)C(=O)N[C@@H](Cc1ccccc1)C(=O)N1CCC[C@H]1C(=O)N[C@@H](CC(=O)O)C(=O)NCC(=O)N[C@@H](CCCNC(=N)N)C(=O)N2 (HELM PEPTIDE1{C.F.P.D.G.R.C.Y.R.S.R.P.P.I}$PEPTIDE1,PEPTIDE1,1:R3-7:R3|PEPTIDE1,PEPTIDE1,1:R1-14:R2$$$V2.0)
2	CC[C@H](C)[C@@H]1NC(=O)[C@@H]2CCCN2C(=O)[C@@H]2CCCN2C(=O)[C@H](CCCNC(=N)N)NC(=O)[C@H](CO)NC(=O)[C@H](CCCCN)NC(=O)[C@H]([C@@H](C)O)NC(=O)[C@@H]2CSSC[C@H](NC1=O)C(=O)N[C@@H](Cc1ccccc1)C(=O)N1CCC[C@H]1C(=O)N[C@@H](CC(=O)O)C(=O)NCC(=O)N[C@@H](CCCNC(=N)N)C(=O)N2 (HELM PEPTIDE1{C.F.P.D.G.R.C.T.K.S.R.P.P.I}$PEPTIDE1,PEPTIDE1,1:R3-7:R3|PEPTIDE1,PEPTIDE1,1:R1-14:R2$$$V2.0)
0.61	CC[C@H](C)[C@@H]1NC(=O)[C@@H]2CCCN2C(=O)[C@@H]2CCCN2C(=O)[C@H](CCCCN)NC(=O)[C@H](CO)NC(=O)[C@H](CCCCN)NC(=O)[C@H](Cc2ccccc2)NC(=O)[C@@H]2CSSC[C@H](NC1=O)C(=O)N[C@@H](Cc1ccccc1)C(=O)N1CCC[C@H]1C(=O)N[C@@H](CC(=O)O)C(=O)NCC(=O)N[C@@H](CCCNC(=N)N)C(=O)N2 (HELM PEPTIDE1{C.F.K.S.K.P.P.I.C.F.P.D.G.R}$PEPTIDE1,PEPTIDE1,1:R3-9:R3|PEPTIDE1,PEPTIDE1,1:R1-14:R2$$$V2.0)
0.66	N=C(N)NCCC[C@@H]1NC(=O)CNC(=O)[C@H](CC(=O)O)NC(=O)[C@@H]2CCCN2C(=O)[C@H](Cc2ccccc2)NC(=O)[C@@H]2CSSC[C@H](NC1=O)C(=O)N[C@@H](Cc1ccc(O)cc1)C(=O)N[C@@H](CCCCN)C(=O)N[C@@H](CO)C(=O)N[C@@H](CCCCN)C(=O)N1CCC[C@H]1C(=O)N1CCC[C@H]1C(=O)N[C@@H](CC(N)=O)C(=O)N2 (HELM PEPTIDE1{C.F.P.D.G.R.C.Y.K.S.K.P.P.N}$PEPTIDE1,PEPTIDE1,1:R3-7:R3|PEPTIDE1,PEPTIDE1,1:R1-14:R2$$$V2.0)
4.7	N=C(N)NCCC[C@@H]1NC(=O)CNC(=O)[C@H](CC(=O)O)NC(=O)[C@@H]2CCCN2C(=O)[C@H](Cc2ccccc2)NC(=O)[C@@H]2CSSC[C@H](NC1=O)C(=O)N[C@@H](Cc1ccc(O)cc1)C(=O)N[C@@H](CCCCN)C(=O)N[C@@H](CO)C(=O)N[C@@H](CCCCN)C(=O)N1CCC[C@H]1C(=O)N1CCC[C@H]1C(=O)N[C@@H](CCCNC(=N)N)C(=O)N2 (HELM PEPTIDE1{C.F.P.D.G.R.C.Y.K.S.K.P.P.R}$PEPTIDE1,PEPTIDE1,1:R3-7:R3|PEPTIDE1,PEPTIDE1,1:R1-14:R2$$$V2.0)
0.66	CC[C@H](C)[C@@H]1NC(=O)[C@@H]2CCCN2C(=O)[C@@H]2CCCN2C(=O)[C@H](CCCCN)NC(=O)[C@H](CO)NC(=O)[C@H](CCCCN)NC(=O)[C@H](Cc2c[nH]c3ccccc23)NC(=O)[C@@H]2CSSC[C@H](NC1=O)C(=O)N[C@@H](Cc1ccccc1)C(=O)N1CCC[C@H]1C(=O)N[C@@H](CC(=O)O)C(=O)NCC(=O)N[C@@H](CCCNC(=N)N)C(=O)N2 (HELM PEPTIDE1{C.F.P.D.G.R.C.W.K.S.K.P.P.I}$PEPTIDE1,PEPTIDE1,1:R3-7:R3|PEPTIDE1,PEPTIDE1,1:R1-14:R2$$$V2.0)
1.1	CC[C@H](C)[C@@H]1NC(=O)[C@@H]2CCCN2C(=O)[C@@H]2CCCN2C(=O)[C@H](CCCNC(=N)N)NC(=O)[C@H](CO)NC(=O)[C@H](CCCCN)NC(=O)[C@H](Cc2ccc(O)cc2)NC(=O)[C@@H]2CSSC[C@H](NC1=O)C(=O)N[C@@H](Cc1ccccc1)C(=O)N1CCC[C@H]1C(=O)N[C@@H](CCC(=O)O)C(=O)NCC(=O)NC(CCCCNC(=N)N)C(=O)N2 (some centres not stated) (HELM PEPTIDE1{C.F.P.E.G.[N=C(N)NCCCCC(N[*:1])C(=O)[*:2]].C.Y.K.S.R.P.P.I}$PEPTIDE1,PEPTIDE1,1:R3-7:R3|PEPTIDE1,PEPTIDE1,1:R1-14:R2$$$V2.0)
2.5	N=C(N)NCCC[C@@H]1NC(=O)CNC(=O)[C@H](CC(=O)O)NC(=O)[C@@H]2CCCN2C(=O)[C@H](Cc2ccccc2)NC(=O)[C@@H]2CSSC[C@H](NC1=O)C(=O)N[C@@H](Cc1ccc(O)cc1)C(=O)N[C@@H](CCCCN)C(=O)N[C@@H](CO)C(=O)N[C@@H](CCCCN)C(=O)N1CCC[C@H]1C(=O)N1CCC[C@H]1C(=O)N[C@@H](CCCCN)C(=O)N2 (HELM PEPTIDE1{C.F.P.D.G.R.C.Y.K.S.K.P.P.K}$PEPTIDE1,PEPTIDE1,1:R3-7:R3|PEPTIDE1,PEPTIDE1,1:R1-14:R2$$$V2.0)
1.8	N=C(N)NCCC[C@@H]1NC(=O)CNC(=O)[C@H](CC(=O)O)NC(=O)[C@@H]2CCCN2C(=O)[C@H](Cc2ccccc2)NC(=O)[C@@H]2CSSC[C@H](NC1=O)C(=O)N[C@@H](Cc1ccc(O)cc1)C(=O)N[C@@H](CCCCN)C(=O)N[C@@H](CO)C(=O)N[C@@H](CCCCN)C(=O)N1CCC[C@H]1C(=O)N1CCC[C@H]1C(=O)N[C@@H](CCC(N)=O)C(=O)N2 (HELM PEPTIDE1{C.F.P.D.G.R.C.Y.K.S.K.P.P.Q}$PEPTIDE1,PEPTIDE1,1:R3-7:R3|PEPTIDE1,PEPTIDE1,1:R1-14:R2$$$V2.0)

From ChEMBL document CHEMBL4371033, “Highly Potent and Selective Plasmin Inhibitors Based on the Sunflower Trypsin Inhibitor-1 Scaffold Attenuate Fibrinolysis in Plasma” (J Med Chem, 2019)
